Reference: patent publication US11358969B2, “Indole AHR inhibitors and uses thereof” (Ikena Oncology, Inc., priority 2017, dated 2022)
Where two headings read alike, the source gives them in different places.

How the values were obtained:
[1] = Mouse Pharmacokinetic Study (Example 1C); type: in vivo; details: mouse, plasma, CD-1 mice; for Vd: read-out: Vdss
Outline: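 CD-1 mice dosed intravenously or by oral gavage; plasma sampled at 0.167, 0.5, 1, 2, 4, 6, 12 and 24 h post-dose. Samples analyzed by LC/MS/MS (MRM, positive mode) against a plasma standard curve of 1.0–3000 ng/mL; PK parameters from non-compartmental analysis.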

[2] = In Vitro Mouse liver S9 Metabolic Stability Assay (Example 1D); type: in vitro ADME; details: CD-1 mouse liver S9, 1 μM compound, 1 mg/mL S9 protein, 37° C., NADPH regenerating system, UDPGA, PAPS
Outline: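 Compound at 1 μM final (0.1% DMSO) incubated at 37° C with pooled CD-1 mouse liver S9 (1 mg/mL protein) plus NADPH-regenerating system, UDPGA and PAPS. Samples at 0 and 60 min quenched in cold acetonitrile with internal standard; LC-MS/MS analyte/IS peak-area ratios give % remaining at 60 min.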

Cyp1a1 = experiment: In Vivo Mouse liver and spleen Cyp1a1 Modulation Assay (Example 1E); design: species or system C57BL/6 mice; details: po, with AHR agonist VAG539 30 mg/kg po, qPCR
Procedure: C57BL/6 mice, female, 6-8 weeks old, weighing approximately 18-20 g were purchased from Shanghai Lingchang Biological Technology Co., Ltd or other certified vendors and used in the studies. Animal husbandry, feeding and health conditions are according to animal welfare guidelines. VAG539 (30 mg/kg, po) was used as AHRagonist, and test compounds were formulated in suitable vehicles, typically 0.5% methylcellulose).
C57BL/6 mice (n=3 per group) were treated with AHR agonist alone or with AHR agonist and test compounds. Animals were sacrificed at 4 or 10 hours after treatment upon which their livers and spleens were collected and subsequently analyzed by qPCR. Normalized fold induction of cyp1a1 was determined by comparing mCYP1A1 and mGAPDH counts (ct) according to: normalized fold=2^−ΔΔCt. The percent inhibition was calculated according to: […]

[3] = 4 h, read-out: Cyp1a1 inhibition, Liver, 4 h
[4] = 4 h, read-out: Cyp1a1 inhibition, Spleen, 4 h
[5] = 10 h, read-out: Cyp1a1 inhibition, Liver, 10 h

Row | SMILES | bioavailability ([1]; po, 30 mg/kg) [%] | AUC(0-inf) ([1]; iv, 3 mg/kg) [ng·h/mL] | AUC(0-t) ([1]; iv, 3 mg/kg) [ng·h/mL] | clearance ([1]; iv, 3 mg/kg) [mL/min/kg] | half-life ([1]; iv, 3 mg/kg) [h] | Vd ([1]; iv, 3 mg/kg) [L/kg] | AUC(0-inf) ([1]; po, 30 mg/kg) [ng·h/mL] | AUC(0-t) ([1]; po, 30 mg/kg) [ng·h/mL] | Cmax ([1]; po, 30 mg/kg) [ng/mL] | Tmax ([1]; po, 30 mg/kg) [h] | half-life ([1]; po, 30 mg/kg) [h] | Mouse S9 Stability: % Remaining After 60 Minutes [2] [%] | inhibition at 30 mg/kg (Cyp1a1; [3]) [%] | inhibition at 5 mg/kg (Cyp1a1; [3]) [%] | inhibition at 5 mg/kg (Cyp1a1; [4]) [%] | inhibition at 10 mg/kg (Cyp1a1; [3]) [%] | inhibition at 10 mg/kg (Cyp1a1; [4]) [%] | inhibition at 25 mg/kg (Cyp1a1; [3]) [%] | inhibition at 5 mg/kg (Cyp1a1; [5]) [%] | inhibition at 10 mg/kg (Cyp1a1; [5]) [%] | also measured
1 | CC(C)c1cnn2c(NCCc3c[nH]c4ccccc34)cc(-c3cncc(F)c3)nc12 [I-2, N-(2-(1H-indol-3-yl)ethyl)-5-(5-fluoropyridin-3-yl)-3-isopropylpyrazolo[1,5-a]pyrimidin-7-amine] | 12 | 610 | 554 | 82 | 1.99 | 9.6 | 743 | 730 | 182 | 0.2 | 3.9 | 13 | 50 | – | – | – | – | – | – | – | –
2 | CC(C)c1cnn2c(N[C@@H]3CCc4[nH]c5ccccc5c4C3)nc(-c3cncc(F)c3)nc12 [I-40, (3R)—N-[2-(5-Fluoro-3-pyridyl)-8-isopropyl-pyrazolo[1,5-a][1,3,5]triazin-4-yl]-2,3,4,9-tetrahydro-1H-carbazol-3-amine] | 75 | 1210 | 1070 | 41.2 | 8.4 | 24 | 9140 | 7560 | 853 | 2 | 8.8 | 87 | – | 77 | 34 | 93 | 74 | 98 | 48 | 75 | inhibition at 25 mg/kg (Cyp1a1; [4]): 96%; inhibition at 25 mg/kg (Cyp1a1; [5]): 97%
3 | Cc1cnn2c(NCCc3c[nH]c4ccccc34)cc(-c3cncc(F)c3)nc12 [I-70, 5-(5-Fluoro-3-pyridyl)-N-[2-(1H-indol-3-yl)ethyl]-3-methyl-pyrazolo[1,5-a]pyrimidin-7-amine] | 26 | 872 | 862 | 54.9 | 1.08 | 3.2 | 1990 | 1940 | 900 | 0.5 | 2.26 | 0 | 98 | 93 | 79 | 99 | 88 | – | 96 | 81 | inhibition at 1 mg/kg (Cyp1a1; [3]): 52%; inhibition at 1 mg/kg (Cyp1a1; [4]): 38%; inhibition at 2 mg/kg (Cyp1a1; [3]): 83%; inhibition at 2 mg/kg (Cyp1a1; [4]): 65%; inhibition at 1 mg/kg (Cyp1a1; [5]): 34%; inhibition at 2 mg/kg (Cyp1a1; [5]): 63%
4 | Cc1cnn2c(N[C@@H]3CCc4[nH]c5ccccc5c4C3)nc(-c3cncc(F)c3)nc12 [I-201, (3R)—N-[2-(5-fluoro-3-pyridyl)-8-methyl-pyrazolo[1,5-a][1,3,5]triazin-4-yl]-2,3,4,9-tetrahydro-1H-carbazol-3-amine] | 79 | 1330 | 1200 | 37.5 | 8.52 | 19.6 | 10600 | 9650 | 1410 | 1 | 7.16 | 34 | – | 58 | 40 | 72 | 46 | 86 | 44 | 59 | inhibition at 25 mg/kg (Cyp1a1; [4]): 72%; inhibition at 25 mg/kg (Cyp1a1; [5]): 97%
